Reference: patent US20020183384A1, “Methods of treating nuclear factor-kappa B mediated diseases and disorders” (priority 2001, published 2002)

System: NF-κB mediated transcription
Assay: NF-κB driven β-lactamase reporter assay in ECV-304 NF-κB.βlaZ cells (AURORA CCF2 fluorescence)
Type: cell-based, human
Conditions: 10 μM compound; ECV-304 NF-κB.βlaZ cells stimulated with 10 ng/mL TNF-α or 100 pg/mL IL-1β, 6 hours at 37° C.; inhibition of maximum blue/green ratio
Method in brief: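 Blue/green (460/530 nm, excitation 395 nm) CCF2 emission ratio quantified NF-κB-driven β-lactamase expression in the stably transfected endothelial-like ECV-304 clone 1E8.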

SMILES | Percent Inhibition at 10 μM
CCCCCCC(C)OS(=O)(=O)NC(=O)Nc1c(C(C)C)cccc1C(C)C (stereo not drawn) [Example 94, Sulfamic acid, [[[2,6-bis(1-methylethyl)phenyl]amino]carbonyl]-, 1-methylheptyl ester,] | <10%

Same assay, conditions: 10 μM compound; ECV-304 NF-κB.βlaZ cells stimulated with 10 ng/mL TNF-α or 100 pg/mL IL-1β, 6 hours at 37° C.; inhibition of maximum blue/green ratio; 10 µM

SMILES | Percent Inhibition at 10 μM
CCCCCCCCCCCCOC(=O)NS(=O)(=O)Nc1c(C(C)C)cccc1C(C)C [Example 53, Carbamic acid, [[[2,6-bis(1-methylethyl)phenyl]amino]sulfonyl]-, dodecyl ester] | 61.31%

Same assay, conditions: Homo sapiens, ECV-304, 6 h, 10 μM compound; ECV-304 NF-κB.βlaZ cells stimulated with 10 ng/mL TNF-α or 100 pg/mL IL-1β, 6 hours at 37° C.; inhibition of maximum blue/green ratio; read-out: Percent Inhibition at 10 μM

SMILES | inhibition at 10 µM
COc1ccc(OC)c(CC(=O)NS(=O)(=O)Oc2c(C(C)C)cccc2C(C)C)c1 [Example 145, [(2,5-Dimethoxy-phenyl)-acetyl]-sulfamic acid 2,6-diisopropyl-phenyl ester] | < 10%
CC(C)c1cc(C(C)C)c(CC(=O)NS(=O)(=O)Oc2c(C(C)C)cc(C(N)=O)cc2C(C)C)c(C(C)C)c1 [Example 234, [(2,4,6-Triisopropyl-phenyl)-acetyl]-sulfamic acid 4-carbamoyl-2,6-diisopropyl-phenyl ester] | 76.7%
CCCCCCCCCCCCOS(=O)(=O)NC(=O)Cc1c(C(C)C)cc(C(C)C)cc1C(C)C [Example 199, [(2,4,6-Triisopropyl-phenyl)-acetyl]-sulfamic acid dodecyl ester] | 50.7%
CC(C)c1cccc(C(C)C)c1OS(=O)(=O)NC(=O)C(Br)c1ccccc1 (stereo not drawn) [Example 175, (Bromo-phenyl-acetyl)-sulfamic acid 2,6-diisopropyl-phenyl ester] | < 10%
CCc1cccc(CC)c1COC(=O)NS(=O)(=O)Oc1c(C(C)C)cccc1C(C)C [Example 140, Carbamic acid, [[2,6-bis(1-methylethyl)phenoxy]sulfonyl]-, (2,6-diethylphenyl)methyl ester] | 38.7%
CC(C)c1cccc(C(C)C)c1OS(=O)(=O)NC(=O)OC1CCCCC1 [Example 133, Carbamic acid, [[2,6-bis(1-methylethyl)phenoxy]sulfonyl]-, cyclohexyl ester] | < 10%
Cc1cc(C(C)C)c(OS(=O)(=O)NC(=O)Cc2c(C(C)C)cc(C(C)C)cc2C(C)C)c(C(C)C)c1 [Example 210, [(2,4,6-Triisopropyl-phenyl)-acetyl]-sulfamic acid 2,6-diisopropyl-4-methyl-phenyl ester] | 52.5%
COC(=O)NS(=O)(=O)Nc1c(C(C)C)cccc1C(C)C [Example 54, Carbamic acid, [[[2,6-bis(1-methylethyl)phenyl]amino]sulfonyl]-, methyl ester] | < 10%
CC(C)c1cc(C(C)C)c(CC(=O)NS(=O)(=O)Oc2c(C(C)C)cc(NC(=S)Nc3cc(Cl)cc(Cl)c3)cc2C(C)C)c(C(C)C)c1 [Example 235, [(2,4,6-Triisopropyl-phenyl)-acetyl]-sulfamic acid 4-[3-(3,5-dichloro-phenyl)-thioureido]-2,6-diisopropyl-phenyl ester] | 146%
CC(C)c1cccc(C(C)C)c1OS(=O)(=O)NC(=O)c1cc2ccccc2oc1=O [Example 237, (2-Oxo-2H-chromene-3-carbonyl)-sulfamic acid 2,6-diisopropyl-phenyl ester] | 57.1%
CC(C)c1cc(C(C)C)c(CC(=O)NS(=O)(=O)Oc2c(C(C)C)cc(Br)cc2C(C)C)c(C(C)C)c1 [Example 203, [(2,4,6-Triisopropyl-phenyl)-acetyl]-sulfamic acid 4-bromo-2,6-diisopropyl-phenyl ester] | 52.2%
CC(C)c1cccc(C(C)C)c1NC(=O)NS(=O)(=O)N(Cc1ccccc1)Cc1ccccc1 [Example 17, N-[2,6-bis(1-methylethyl)phenyl]-N′-[[bis(phenylmethyl)amino]-sulfonyl]-urea] | 43.8%
CC(C)c1cc(C(C)C)c(CC(=O)NS(=O)(=O)Oc2c(C(C)C)cccc2C(C)C)c(C(C)C)c1 [Example 120, Sulfamic acid, [[2,4,6-tris(1-methylethyl)phenyl]acetyl]-, 2,6-bis(1-methylethyl)phenyl ester] | 55%
CC(C)c1cccc(C(C)C)c1OS(=O)(=O)NC(=O)C(c1ccc(Cl)cc1)c1ccc(Cl)cc1 [Example 172, [Bis-(4-chloro-phenyl)-acetyl]-sulfamic acid 2,6-diisopropyl-phenyl ester] | 86.9%
CC(C)c1cc(C(C)C)c(CC(=O)NS(=O)(=O)Oc2c(C(C)C)cc(NC(=O)[C@@H](N)CO)cc2C(C)C)c(C(C)C)c1 [Example 230, [2-(2,4,6-Triisopropyl-phenyl)-acetyl]-sulfamic acid 4-((S)-2-amino-3-hydroxy-propionylamino)-2,6-diisopropyl-phenyl ester; compound with trifluoro-acetic acid] | 75.2%
CCC(C)N(C(C)CC)S(=O)(=O)NC(=O)Nc1c(C(C)C)cccc1C(C)C (stereo not drawn) [Example 83, Urea, N-[2,6-bis(1-methylethyl)phenyl]-N′-[[bis(1-methylpropyl)-amino]-sulfonyl]-] | 10.6%
CCCCCCCCCCCCCCCCC(C)S(=O)(=O)NC(=O)Nc1c(C(C)C)cccc1C(C)C (stereo not drawn) [Example 246, N-[2,6-bis(1-methylethyl)phenyl]-N′-(2-octadecylsulfonyl)urea] | < 10%

Same assay, conditions: Homo sapiens; 10 μM compound; ECV-304 NF-κB.βlaZ cells stimulated with 10 ng/mL TNF-α or 100 pg/mL IL-1β, 6 hours at 37° C.; inhibition of maximum blue/green ratio; read-out: Percent Inhibition at 10 μM

SMILES | inhibition at 10 µM
CCCCCCN(CCCCCC)S(=O)(=O)NC(=O)Oc1c(C(C)C)cccc1C(C)C [Example 88, Carbamic acid, [(dihexylamino)sulfonyl]-, 2,6-bis(1-methylethyl)phenyl ester] | < 10%
CCCCCCOS(=O)(=O)NC(=O)Oc1c(C(C)C)cccc1C(C)C [Example 57, Carbamic acid, [(hexyloxy)sulfonyl]-, 2,6-bis(1-methylethyl)phenyl ester] | 20.4%
CC(C)c1cccc(C(C)C)c1OS(=O)(=O)NC(=O)Oc1c(F)c(F)c(F)c(F)c1F [Example 152, Carbamic acid, [[2,6-bis(1-methylethyl)phenoxy]sulfonyl]-, pentafluorophenyl ester] | < 10%
CC(C)c1cccc(C(C)C)c1OS(=O)(=O)NC(=O)Oc1ccc(F)cc1 [Example 150, Carbamic acid, [[2,6-bis(1-methylethyl)phenoxy]sulfonyl]-, 4-fluorophenyl ester] | < 10%
CC(C)c1cc(CN(C)C)cc(C(C)C)c1OC(=O)NS(=O)(=O)Oc1c(C(C)C)cccc1C(C)C [Example 130, Carbamic acid, [[2,6-bis(1-methylethyl)phenoxy]sulfonyl]-, 4-[(dimethylamino)-methyl]-2,6-bis(1-methylethyl)phenyl ester] | < 10%
CC(C)c1cccc(C(C)C)c1OS(=O)(=O)NC(=O)Oc1c(C(C)C)c(C(C)C)c(F)c(C(C)C)c1C(C)C [Example 116, Carbamic acid, [[2,6-bis(1-methylethyl)phenoxy]sulfonyl]-, 4-fluoro-2,3,5,6-tetrakis(1-methylethyl)phenyl ester] | < 10%
CC(C)(C)c1cccc(C(C)(C)C)c1OC(=O)NS(=O)(=O)N(Cc1ccccc1)Cc1ccccc1 [Example 24, Carbamic acid, [[bis(phenylmethyl)amino]sulfonyl]-, 2,6-bis(1,1-dimethylethyl)-phenyl ester] | 31%
CC(C)c1cc(C(C)C)c(OC(=O)NS(=O)(=O)Oc2c(C(C)C)cccc2C(C)C)c(C(C)C)c1 [Example 124, Carbamic acid, [[2,6-bis(1-methylethyl)phenoxy]sulfonyl]-, 2,4,6-tris(1-methylethyl)phenyl ester] | 11.3%
